Measured values as given in patent publication US20250195478A1, “DUAL INHIBITORS OF VISTA AND PD-1 PATHWAYS” (Aurigene Oncology Limited, priority 2016, published 2025).

Columns and labels:
Recombinant mouse PD-L1 = target: T1, Recombinant mouse PD-L1 (Mus musculus, UniProt Q9EP73); test: Rescue of mouse splenocyte proliferation in the presence of recombinant PD-L1 (CFSE proliferation assay); assay type: cell-based; conditions: 100 nM compound; anti-CD3/CD28 stimulated mouse splenocytes + PD-L1; 72 h; stimulated splenocytes = 100%; read-out: PDL1 (rescue of proliferation @ 100 nM)
T1 construct: Fc (Fc chimera); purchased R&D Systems 1019-B7-100
Experimental: Example 1: Rescue of Mouse Splenocyte Proliferation in the Presence of Recombinant PD-L1/PD-L2
Recombinant mouse PD-L1 (rm-PDL-1, cat no: 1019-B7-100; R&D Systems) were used as the source of PD-L1.
Mouse splenocytes harvested from 6-8 weeks old C57 BL6 mice; RPMI 1640 (GIBCO, Cat #11875); DMEM with high glucose (GIBCO, Cat #D6429); Fetal Bovine Serum [Hyclone, Cat #SH30071.03]; Penicillin (10000unit/mL)-Streptomycin (10,000 μg/mL) Liquid (GIBCO, Cat #15140-122); MEM Sodium Pyruvate solution 100 mM (100×), Liquid (GIBCO, Cat #11360); Nonessential amino acid (GIBCO, Cat #11140); L-Glutamine (GIBCO, Cat #25030); Anti-CD3 antibody (eBiosciences-16-0032); Anti-CD28 antibody (eBiosciences-16-0281); ACK lysis buffer (1mL) (GIBCO, Cat #-A10492); Histopaque (density-1.083 gm/mL) (SIGMA 10831); Trypan blue solution (SIGMA-T8154); 2 mL Norm Ject Luer Lock syringe-(Sigma 2014-12); 40 μm nylon cell strainer (BD FALCON 35230); Hemacytometer (Bright line-SIGMA Z359629); FACS Buffer (PBS/0.1% BSA): Phosphate Buffered Saline (PBS) pH 7.2 (HiMedia TS1006) with 0.1% Bovine Serum Albumin (BSA) (SIGMA A7050) and sodium azide (SIGMA 08591); 5 mM stock solution of CFSE: CFSE stock solution was prepared by diluting lyophilized CFSE with 180 μL of Dimethyl sulfoxide (DMSO C2H6SO, SIGMA-D-5879) and aliquoted in to tubes for further use. Working concentrations were titrated from 10 μM to 1 μM. (eBioscience-650850-85); 0.05% Trypsin and 0.02% EDTA (SIGMA 59417C); 96-well format ELISA plates (Corning CLS3390); BD FACS caliber (E6016);
Recombinant mouse B7-H1/PDL1 Fc Chimera, (rm-PD-L1 cat no: 1019-B7-100).
Splenocytes harvested in a 50 mL falcon tube by mashing mouse spleen in a 40 μm cell strainer were further treated with 1 mL ACK lysis buffer for 5 min at room temperature.
After washing with 9 mL of RPMI complete media, cells were re-suspended in 3 mL of 1×PBS in a 15 mL tube. 3 mL of Histopaque was added carefully to the bottom of the tube without disturbing overlaying splenocyte suspension. After centrifuging at 800×g for 20 min at room temperature, the opaque layer of splenocytes was collected carefully without disturbing/mixing the layers. Splenocytes were washed twice with cold 1×PBS followed by total cell counting using Trypan Blue exclusion method and used further for cell based assays.
Splenocytes were cultured in RPMI complete media (RPMI +10% fetal bovine serum+1 mM sodium pyruvate+10,000units/mL penicillin and 10,000 μg/mL streptomycin) and maintained in a CO2 incubator with 5% CO2 at 37° C.
CFSE is a dye that passively diffuses into cells and binds to intracellular proteins. 1×10^6 cells/mL of harvested splenocytes were treated with 5 μM of CFSE in pre-warmed 1×PBS/0.1% BSA solution for 10 min at 37° C. Excess CFSE was quenched using 5 volumes of ice-cold culture media to the cells and incubated on ice for 5 min. CFSE labelled splenocytes were further given three washes with ice cold complete RPMI media. CFSE labelled 1×10^5 splenocytes added to wells containing either MDA-MB231 cells (1×10^5 cells cultured in high glucose DMEM medium) or recombinant […] PDL-1 (100 ng/mL) and test compounds. Splenocytes were stimulated with anti-mouse CD3 and anti-mouse CD28 antibody (lug/mL each), and the culture was further incubated for 72 h at 37° C. with 5% CO2. Cells were harvested and washed thrice with ice cold FACS buffer and % proliferation was analysed by flow cytometry with 488 nm excitation and 521 nm emission filters.
Percent splenocyte proliferation was analysed using cell quest FACS program and percent rescue of splenocyte proliferation by compound was estimated after deduction of % background proliferation value and normalising to % stimulated splenocyte proliferation (positive control) as 100%.
Stimulated splenocytes: Splenocytes+anti-CD3/CD28 stimulation
Background proliferation: Splenocytes+anti-CD3/CD28+PD-L1
Compound proliferation: Splenocytes+anti-CD3/CD28+PD-L1+Compound […]

recombinant human VISTA = target: T2, recombinant human VISTA (Homo sapiens, UniProt Q9H7M9); test: Human PBMC IFN-γ release assay in the presence of recombinant human VISTA; assay type: cell-based; conditions: 100 nM compound, plate-coated VISTA + anti-CD3, anti-CD28, 72 h, ELISA
T2 construct: Fc (Fc chimera); purchased R&D Systems 7126-B7
Experimental: Example 2: Rescue of Mouse Splenocyte Proliferation in the Presence of Recombinant VISTA
Vehicle: Milli Q water; RPMI 1640 (GIBCO, Cat #11875); Fetal Bovine Serum [Hyclone, Cat #SH30071.03]; Penicilin (10000 unit/ml)-Streptomycin (10,000 μg/ml) liquid (GIBCO, Cat #15140-122); MEM Sodium Pyruvate solution 100 mM (100×), Liquid (GIBCO, Cat #11360); Nonessential amino acid (GIBCO, Cat #11140); L-Glutamine (GIBCO, Cat #25030); Recombinant human VISTA (rhGi24 VISTA/B7-H5 Fc chimera (R&D systems, cat no: 7126-B7); Anti-h/m Gi24/VISTA/B7-H5 purified mouse monoclonal IgG2B (R&D systems, cat no: MAB7126); Mouse IgG2B isotype control (R&D Systems cat no: MAB 004); Anti human-CD3 antibody (eBiosciences-16-0039); Anti human-CD28 antibody (eBiosciences-16-0289); Histopaque (density-1.077 gm/ml) (SIGMA 1077); Trypan Blue solution (SIGMA-T8154); Hemacytometer (Bright line-SIGMA Z359629); FACS Buffer containing Phosphate Buffered Saline (PBS) pH 7.2; (HiMedia TS1006) with 0.1% Bovine Serum Albumin (BSA) (SIGMA A7050) and sodium azide (SIGMA 08591); 96-well format ELISA plates (Corning 3599); 96-well format ELISA plates (Corning 3361); BD FACS caliber (E6016); Centrifuge (Eppendorf 5810 R); Human IFN-γ Duo set ELISA kit (R&D Systems; cat no: DY-285).
96-well cell culture plates were pre-coated with recombinant human VISTA (2.5 μg/ml) and anti-human CD3 (2.5 μg/ml), and stored at 4° C. overnight. Anti-human VISTA and isotype control antibodies were either coated along with the VISTA or incubated for 30 min next day before addition of cells. On the next day, plates were washed with 1×PBS and then incubated with test compounds for 30 min. Isolated PBMC (0.1×10^6 cells/well) and anti-human CD28 antibodies (lug/ml) were added to the wells. The culture was further incubated for 72 h at 37° C. with 5% CO2. After 72 h of incubation the cell culture supernatants were collected after brief centrifugation at 200 g×5 min at 4° C. and processed for human IFN-γ measurement by ELISA following manufacturer's protocol (R&D Systems; DY-285).
In brief, 96-well ELISA plates were coated with 100 μl/well of capture antibody in coating buffer and incubated overnight at 4° C. Plates were washed five times with wash buffer and further blocked with 200 μl of 1× assay diluents for 1 hr at RT. Following wash step, 100 μl of cell culture supernatants were added to wells and further incubated for 2 hr at RT. Appropriate standards were also included. After wash step, plate was incubated for one hour with 100 μl/well of detection antibody. The wash step was repeated and the plate was incubated for 30 min with 100 μl/well of Avidin-HRP. The plate was washed four times with wash buffer and subsequently incubated for 15 min with 100 μl/well of substrate solution. 50 μl of stop solution was added to each well and the plate was read at 450 nm using Gen5 ver 2.05. Delta OD values were used for calculating the concentrations. The absorbance values were plotted against the standards and the concentration of IFN-γ was determined using GraphPad Prism software. Each experimental condition was carried out in triplicates.
The percent rescue of IFN-γ release of the selected compounds of present invention are set forth below wherein “A” refers to compounds having more than 70% rescue of IFN-γ release, “B” refers to compounds having rescue of IFN-γ release ranges from 50% to 69.9% and “C” refers to compounds having less than 50% rescue of IFN-γ release.

T1 sequence (Q9EP73 19-238 limits assumed): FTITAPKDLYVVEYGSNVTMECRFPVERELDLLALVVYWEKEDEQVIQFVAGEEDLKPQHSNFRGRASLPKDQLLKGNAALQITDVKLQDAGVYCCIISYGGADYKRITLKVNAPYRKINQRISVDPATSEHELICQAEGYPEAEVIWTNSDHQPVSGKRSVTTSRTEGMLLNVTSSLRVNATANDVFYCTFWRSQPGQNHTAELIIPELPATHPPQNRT
T2 sequence (Q9H7M9 with tags, fused parts or gaps limits assumed): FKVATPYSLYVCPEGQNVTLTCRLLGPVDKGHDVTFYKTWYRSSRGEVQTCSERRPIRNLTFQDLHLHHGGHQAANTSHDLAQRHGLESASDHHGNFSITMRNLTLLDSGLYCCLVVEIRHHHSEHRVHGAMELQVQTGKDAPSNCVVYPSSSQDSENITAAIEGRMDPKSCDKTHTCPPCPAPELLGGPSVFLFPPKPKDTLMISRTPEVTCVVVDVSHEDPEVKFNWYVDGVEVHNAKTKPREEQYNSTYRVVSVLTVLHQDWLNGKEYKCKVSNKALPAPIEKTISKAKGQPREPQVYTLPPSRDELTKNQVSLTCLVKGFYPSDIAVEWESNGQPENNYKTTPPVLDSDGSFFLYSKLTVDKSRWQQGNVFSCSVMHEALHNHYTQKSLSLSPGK

activation at 0.1 µM (Recombinant mouse PD-L1) | Structure (SMILES) | VISTA (rescue of IFN γ release @ 100 nM) (recombinant human VISTA)
97% | CC(O)[C@H](NC(=O)N[C@@H](CC(N)=O)c1nc([C@@H](N)CO)no1)C(=O)O (some centres unmarked) [Compound 1] | A (more than 70% rescue of IFN-γ release)
75% | CC(O)[C@H](NC(=O)N[C@@H](CC(N)=O)c1nc([C@@H](N)C(C)O)no1)C(=O)O (some centres unmarked) [Compound 2] | A (more than 70% rescue of IFN-γ release)
91% | N[C@@H](CO)c1noc([C@H](CC(=O)O)NC(=O)N[C@@H](CO)C(=O)O)n1 [Compound 3] | C (less than 50% rescue of IFN-γ release)
– | NCCCC[C@H](NC(=O)N[C@@H](CC(N)=O)c1nc([C@@H](N)CO)no1)C(=O)O [Compound 4] | B (rescue of IFN-γ release ranges from 50% to 69.9%)
– | CC(O)[C@H](NC(=O)N[C@@H](CC(N)=O)c1nc([C@@H](N)Cc2ccc(O)cc2)no1)C(=O)O (some centres unmarked) [Compound 5] | A (more than 70% rescue of IFN-γ release)
63% | CN[C@@H](CO)c1noc([C@H](CC(N)=O)NC(=O)N[C@H](C(=O)O)C(C)O)n1 (some centres unmarked) [Compound 6] | C (less than 50% rescue of IFN-γ release)
96% | CC(O)[C@H](NC(=O)N[C@@H](CC(N)=O)c1nc([C@@H](N)CCCCN)no1)C(=O)O (some centres unmarked) [Compound 7] | C (less than 50% rescue of IFN-γ release)
60% | CC(O)[C@H](NC(=O)N[C@@H](Cc1cc2ccccc2[nH]1)c1nc([C@@H](N)CO)no1)C(=O)O (some centres unmarked) [Compound 8] | B (rescue of IFN-γ release ranges from 50% to 69.9%)
– | CC(O)[C@H](NC(=O)N[C@H](c1nc([C@@H](N)CO)no1)C(C)C)C(=O)O (some centres unmarked) [Compound 9] | C (less than 50% rescue of IFN-γ release)
– | CCCCCCNC(=O)C[C@H](NC(=O)N[C@H](C(=O)O)C(C)O)c1nc([C@@H](N)CO)no1 (some centres unmarked) [Compound 10] | C (less than 50% rescue of IFN-γ release)
– | CCC(C)[C@H](NC(=O)N[C@@H](CCC(=O)O)C(=O)O)c1nc([C@@H](N)CCC(N)=O)no1 (some centres unmarked) [Compound 11] | C (less than 50% rescue of IFN-γ release)
– | NCCCC[C@H](N)c1noc([C@H](CCC(N)=O)NC(=O)N[C@@H](CO)C(=O)O)n1 [Compound 12] | B (rescue of IFN-γ release ranges from 50% to 69.9%)
– | N[C@@H](CO)c1noc([C@H](CO)NC(=O)N[C@@H](CO)C(=O)O)n1 [Compound 13] | B (rescue of IFN-γ release ranges from 50% to 69.9%)
59% | N[C@@H](Cc1cnc[nH]1)c1noc([C@H](CC(=O)O)NC(=O)N[C@@H](CO)C(=O)O)n1 [Compound 14] | B (rescue of IFN-γ release ranges from 50% to 69.9%)
70% | CC(O)[C@H](NC(=O)N[C@@H](CC(=O)O)c1nc([C@@H](N)CCCNC(=N)N)no1)C(=O)O (some centres unmarked) [Compound 15] | C (less than 50% rescue of IFN-γ release)
– | N=C(N)NCCC[C@H](N)c1noc([C@H](CC(=O)O)NC(=O)N[C@@H](CO)C(=O)O)n1 [Compound 16] | B (rescue of IFN-γ release ranges from 50% to 69.9%)
– | CC(=O)NCCCC[C@@H](NC(=O)N[C@H](C(=O)O)C(C)O)c1nc([C@@H](N)CO)no1 (some centres unmarked) [Compound 17] | C (less than 50% rescue of IFN-γ release)
– | CCCCCCNC(=O)CC[C@H](NC(=O)N[C@H](C(=O)O)C(C)O)c1nc([C@@H](N)CO)no1 (some centres unmarked) [Compound 18] | C (less than 50% rescue of IFN-γ release)
– | CC(O)[C@@H](NC(=O)N[C@@H](CC(N)=O)c1nc([C@@H](N)CO)no1)C(=O)O (some centres unmarked) [Compound 20] | A (more than 70% rescue of IFN-γ release)
– | CC(O)[C@H](NC(=O)N[C@@H](CC(N)=O)c1nc(C2(N)CCCC2)no1)C(=O)O (some centres unmarked) [Compound 25] | C (less than 50% rescue of IFN-γ release)
– | CCC(C)[C@H](NC(=O)N[C@H](C(=O)O)[C@@H](C)O)c1nc([C@@H](N)CO)no1 (some centres unmarked) [Compound 27] | A (more than 70% rescue of IFN-γ release)
